Where “and” joins values, the source holds several entries; their conditions need not be identical. Equal values may be shown once. Where a name gives a salt, the structure may show the parent alone.

Test [1] concerns the target T1, human RORγt ligand binding domain (RORγt LBD) (Homo sapiens, UniProt P51449).
T1 construct: His-tag (N); TurboTEV protease cleavage site (ENLYFQG) (N); made in house; host or cells: E. coli (pHIS1, modified pET vector)
T1 sequence (P51449 with tags, fused parts or gaps): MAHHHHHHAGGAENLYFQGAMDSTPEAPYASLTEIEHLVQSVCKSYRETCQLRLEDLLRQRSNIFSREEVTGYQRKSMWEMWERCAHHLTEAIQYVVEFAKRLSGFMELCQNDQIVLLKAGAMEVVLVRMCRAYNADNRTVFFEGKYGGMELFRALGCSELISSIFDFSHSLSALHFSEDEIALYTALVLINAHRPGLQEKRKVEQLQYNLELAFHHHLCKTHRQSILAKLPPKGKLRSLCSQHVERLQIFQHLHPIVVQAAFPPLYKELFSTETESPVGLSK
Description: RORγt ThermoFluor assay (thermal shift, ligand binding affinity). The settings on record: estimated from concentration response of thermal shift. An outline of the steps:
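Thermal shift of 0.065 mg/mL RORγt with 60 μM 1,8-ANS in 100 mM Hepes pH 7.0, 10 mM NaCl, 2.5 mM GSH, 0.002% Tween-20. Compounds in 1:2 series from 10 mM DMSO stock. Dye fluorescence (500 nm emission) tracked versus temperature; ΔTm used to derive KD.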

Another test deals with T2, human RORγt LBD (Homo sapiens, UniProt P51449).
T2 construct: expressed in transfected cells
T2 sequence (P51449 258-518): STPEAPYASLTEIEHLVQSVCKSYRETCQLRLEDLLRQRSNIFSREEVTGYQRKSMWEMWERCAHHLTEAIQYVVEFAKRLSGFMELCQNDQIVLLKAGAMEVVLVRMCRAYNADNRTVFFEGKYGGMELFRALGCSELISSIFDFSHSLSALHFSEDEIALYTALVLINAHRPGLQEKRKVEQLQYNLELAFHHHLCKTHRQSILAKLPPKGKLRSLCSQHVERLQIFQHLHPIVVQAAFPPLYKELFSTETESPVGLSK
The experiment in a line: RORγt reporter assay (GAL4-RORγt LBD luciferase in HEK293T cells). The settings on record: for IC50 / RORγt reporter Assay, % inhibition @ 6 μM: HEK293T cells; for IC50: 24 hours compound treatment; for inhibition at 6 µM: HEK-293T, read-out: RORγt reporter Assay, % inhibition @ 6 μM, HEK293T cells, 6 μM compound; for RORγt reporter Assay, % inhibition @ 6 μM: 6 μM compound. The format is cell-based. The gist of the method:
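Read-out is the firefly-to-renilla luciferase ratio versus compound concentration, after 24 h compound exposure of cells in phenol-red-free DMEM/5% lipid-reduced FCS. Cells were HEK293T bulk-transfected with a GAL4-responsive firefly reporter (pGL4.31) and GAL4 DBD–wild-type human RORγt LBD fusion (pBIND, renilla as transfection/viability control).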
(In a reporter assay the amount or activity of a reporter protein is the signal.)

Test [2] concerns IL-17 production by CD4 T cells. Description: Human Th17 assay (IL-17 production by CD4 T cells under Th17 differentiation conditions). It is filed as cell-based. The following applies: IL-17 in supernatant after 3 days. The gist of the method:
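Primary CD4+ T cells from healthy-donor PBMC, preincubated 1 h with titrated compound (0.2% DMSO), then activated with anti-CD3/CD28 beads plus anti-IL4, anti-IFNγ, IL1β, IL23, IL6, TGFβ and IL2.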

As usually defined, the Kd is the free concentration of one partner at which half of the binding sites on the other are occupied at equilibrium, for simple one-to-one binding. As usually defined, the IC50 is the concentration that gives 50% inhibition. A higher IC50 goes with weaker potency in that assay. As usually defined, the inhibition is the change of the read-out against control, counted positive when it falls. Regarding `CCCCN(C)c1nc2ccc(C(O)(c3ccncc3)c3cncn3C)cc2c(Cl)c1-c1ccccc1` (centres unmarked) [Example 76, {2-[Butyl(methyl)amino]-4-chloro-3-phenylquinolin-6-yl}(1-methyl-1H-imidazol-5-yl)pyridin-4-ylmethanol•TFA], the Kd in test [1] is 2.3 nM. At human RORγt LBD, the IC50 amounted to 4.9 nM and the inhibition at 6 µM came out at 100%. Besides, in test [2] (Homo sapiens, CD4+ T, 72 h), the IC50 came to 40 nM.

Turning to `COc1nc2ccc(C(O)(c3cccnc3)c3cccc(Cl)c3)cc2c(Cl)c1-c1ccccc1` (centres unmarked) [Example 80, (4-Chloro-2-methoxy-3-phenylquinolin-6-yl)(3-chlorophenyl)pyridin-3-ylmethanol•TFA], the Kd in test [1] is 55 nM. Further, at human RORγt LBD, the IC50 stood at 25 nM and the inhibition at 6 µM stood at 89%. Further, in test [2] (Homo sapiens, CD4+ T, 72 h), half-maximal inhibition (IC50) required 120 nM.

For `Oc1ccc(C(O)(c2cccnc2)c2ccc3nc(Cl)c(-c4ccccc4)c(Cl)c3c2)cc1` (centres unmarked) [Example 29, 4-[(2,4-Dichloro-3-phenylquinolin-6-yl)(hydroxy)pyridin-3-ylmethyl]phenol•HCl], the Kd in test [1] was 180 nM. At human RORγt LBD, half-maximal inhibition (IC50) was put at 260 nM and the inhibition at 6 µM came out at 95%. In test [2] (Homo sapiens, CD4+ T, 72 h), this molecule yielded an IC50 of 2800 nM.

On to `CC(C)Oc1nc2ccc(C(O)(c3cccnc3)c3cccc(Cl)c3)cc2c(Cl)c1-c1ccccc1` (centres unmarked) [Example 84, [4-Chloro-2-(1-methylethoxy)-3-phenylquinolin-6-yl](3-chlorophenyl)pyridin-3-ylmethanol•TFA], for which, in test [1], the Kd is 1400 nM. Moreover, at human RORγt LBD, the IC50 was found to be 890 nM and the inhibition at 6 µM is 73%. The same molecule came in with an IC50 in test [2] (Homo sapiens, CD4+ T, 72 h) of 1300 nM.

On to `CN(C)c1nc2ccc(C(O)(c3cccnc3)c3cncn3C)cc2c(Cl)c1-c1ccccc1` (centres unmarked) [Example 34, [4-Chloro-2-(dimethylamino)-3-phenylquinolin-6-yl](1-methyl-1H-imidazol-5-yl)pyridin-3-ylmethanol•TFA], for which the Kd in test [1] is 33 nM. Besides, on human RORγt LBD, the IC50 was 47 nM and < 50 nM; the inhibition at 6 µM came to 100%. Moreover, half-maximal inhibition in test [2] (Homo sapiens, CD4+ T, 72 h) (IC50) was put at 140 nM.

Turning to `Cc1cc(C(O)(c2ccc3nc(Cl)c(-c4ccccc4)c(Cl)c3c2)c2cncn2C)on1` (centres unmarked) [Example 132, (2,4-Dichloro-3-phenylquinolin-6-yl)(1-methyl-1H-imidazol-5-yl)(3-methylisoxazol-5-yl)methanol•TFA], in test [1], the Kd is 16 nM. Also, at human RORγt LBD, half-maximal inhibition (IC50) was put at 48 nM and the inhibition at 6 µM came out at 103%. For the same molecule, in test [2] (Homo sapiens, CD4+ T, 72 h), the IC50 came out at 130 nM.

As for `COc1cccc(C(O)(c2ccc(Cl)nc2)c2ccc3nc(Cl)c(-c4ccccc4)c(Cl)c3c2)c1` (centres unmarked) [Example 65, (6-Chloropyridin-3-yl)(2,4-dichloro-3-phenylquinolin-6-yl)(3-methoxyphenyl)methanol], the Kd in test [1] is 200 nM. Moreover, on human RORγt LBD, the IC50 was found to be 160 nM and the inhibition at 6 µM came to 103%. The molecule further gave an IC50 in test [2] (Homo sapiens, CD4+ T, 72 h) of 190 nM.

Consider `CN(C)c1nc2ccc(C(O)(c3ccc(Cl)cc3)c3cccnc3)cc2c(Cl)c1-c1ccccc1` (centres unmarked) [Example 32, [4-Chloro-2-(dimethylamino)-3-phenylquinolin-6-yl](4-chlorophenyl)pyridin-3-ylmethanol•TFA], for which the Kd in test [1] was 330 nM. Moreover, at human RORγt LBD, half-maximal inhibition (IC50) was put at 94 nM and the inhibition at 6 µM came to 97%. In test [2] (Homo sapiens, CD4+ T, 72 h), this molecule registered an IC50 of 860 nM.

For `OC(c1ccc(Cl)nc1)(c1cccc(F)c1)c1ccc2nc(Cl)c(-c3ccccc3)c(Cl)c2c1` (centres unmarked) [Example 57, (6-Chloropyridin-3-yl)(2,4-dichloro-3-phenylquinolin-6-yl)(3-fluorophenyl)methanol], the Kd in test [1] is 55 nM. On human RORγt LBD, the IC50 came out at 160 nM and the inhibition at 6 µM amounted to 90%. Besides, half-maximal inhibition in test [2] (Homo sapiens, CD4+ T, 72 h) (IC50) was put at 280 nM.

As for `CCN(CC)c1nc2ccc(C(O)(c3cccnc3)c3cccc(Cl)c3)cc2c(Cl)c1-c1ccccc1` (centres unmarked) [Example 100, (4-Chloro-2-(diethylamino)-3-phenylquinolin-6-yl)(3-chlorophenyl)pyridin-3-ylmethanol•TFA], the Kd in test [1] is 350 nM. Besides, the IC50 against human RORγt LBD amounted to 160 nM; in test [2] (Homo sapiens, CD4+ T, 72 h), 150 nM. On human RORγt LBD, the inhibition at 6 µM was 95%.

In the case of `Cn1cncc1C(O)(c1cccnc1)c1cc(F)c2nc(Cl)c(-c3ccccc3)c(Cl)c2c1` (centres unmarked) [Example 154, (2,4-Dichloro-8-fluoro-3-phenylquinolin-6-yl)(1-methyl-1H-imidazol-5-yl)(pyridin-3-yl)methanol•TFA], the Kd in test [1] is 120 nM. Also, on human RORγt LBD, half-maximal inhibition (IC50) was put at 970 nM and the inhibition at 6 µM turned out to be 90%. Further, the midpoint of inhibition in test [2] (Homo sapiens, CD4+ T, 72 h), the IC50, lay at 1900 nM.

As for `CC(=O)N1CCC(C(O)(c2cccnc2)c2ccc3nc(Cl)c(-c4ccccc4)c(Cl)c3c2)CC1` (centres unmarked) [Example 95, (1-Acetylpiperidin-4-yl)(2,4-dichloro-3-phenylquinolin-6-yl)pyridin-3-ylmethanol•TFA], the Kd in test [1] was 23 nM. The IC50 on human RORγt LBD is 500 nM; in test [2] (Homo sapiens, CD4+ T, 72 h), greater than 6000 nM. For the same molecule, at human RORγt LBD, the inhibition at 6 µM stood at 98%.

For `COc1cccc(C(O)(c2ccc(C)nc2)c2ccc3nc(Cl)c(-c4ccccc4)c(Cl)c3c2)c1` (centres unmarked) [Example 69, (2,4-Dichloro-3-phenylquinolin-6-yl)(3-methoxyphenyl)(6-methylpyridin-3-yl)methanol•TFA], the Kd in test [1] was 300 nM. Moreover, the IC50 on human RORγt LBD came out at 150 nM; in test [2] (Homo sapiens, CD4+ T, 72 h), 610 nM. Also, the inhibition at 6 µM at human RORγt LBD is 99%.

On to `Cc1cc(C(O)(c2ccc(F)cc2)c2cncn2C)cc2c(C#N)c(-c3cccc(F)c3)c(C#N)nc12` (single isomer, unassigned) [Example 175c, 3-(3-Fluorophenyl)-6-((4-fluorophenyl)(hydroxy)(1-methyl-1H-imidazol-5-yl)methyl)-8-methylquinoline-2,4-dicarbonitrile], for which the Kd in test [1] was 64 nM. For the same molecule, at human RORγt LBD, the “RORγt reporter Assay, % inhibition @ 6 μM” value amounted to 95% and inhibition was half-maximal at 140 nM (IC50). The molecule also yielded an IC50 in test [2] (Homo sapiens, CD4+ T, 72 h) of 110 nM.

Turning to `Cn1cncc1C(O)(c1ccncc1)c1ccc2nc(C(F)(F)F)c(-c3ccccc3)c(C(F)(F)F)c2c1` (centres unmarked) [Example 164, (1-Methyl-1H-imidazol-5-yl)(3-phenyl-2,4-bis(trifluoromethyl)quinolin-6-yl)(pyridin-4-yl)methanol•TFA], the Kd in test [1] was 1.2 nM. Further, the IC50 at human RORγt LBD came to 18 nM; in test [2] (Homo sapiens, CD4+ T, 72 h), 26 nM. Besides, on human RORγt LBD, the inhibition at 6 µM worked out at 98%.

Take `COc1ccc(C(O)(c2ccc3nc(Cl)c(-c4ccccc4)c(Cl)c3c2)c2c(C)noc2C)cn1` (centres unmarked) [Example 129, (2,4-Dichloro-3-phenylquinolin-6-yl)(3,5-dimethylisoxazol-4-yl)(6-methoxypyridin-3-yl)methanol•TFA]: in test [1], the Kd was 6.2 nM. For the same molecule, on human RORγt LBD, the midpoint of inhibition, the IC50, lay at 160 nM and the inhibition at 6 µM was found to be 100%. The molecule further registered an IC50 in test [2] (Homo sapiens, CD4+ T, 72 h) of 80 nM.

As to `CC(=O)N1CCC(C(O)(c2ccccc2)c2ccc3nc(C(F)(F)F)c(-c4ccccc4)c(C(F)(F)F)c3c2)CC1` (single isomer, unassigned) [Example 169c, 1-(4-(Hydroxy(phenyl)(3-phenyl-2,4-bis(trifluoromethyl)quinolin-6-yl)methyl)piperidin-1-yl)ethanone], in test [1], the Kd is 52 nM. For the same molecule, the “RORγt reporter Assay, % inhibition @ 6 μM” value at human RORγt LBD was found to be 96%. Besides, the IC50 against human RORγt LBD turned out to be 100 nM; in test [2] it was 110 nM.

The values are drawn from patent US9309222B2, “Phenyl linked quinolinyl modulators of RORγt” (Janssen Pharmaceutica NV, priority 2012, dated 2016).
